Assay results: patent US8722332B2, “Macrocyclic lactone resistance marker for dirofilaria immitis” (priority 2010, dated 2014)
Entries after “also recorded” stand apart in the source; their conditions may differ. Where two headings read alike, the source gives them in different places. Marks after values point to notes of the source that are not given here.

Legend:
mf = conditions: in vivo; cited from earlier work
D. immitis mf = test system: D. immitis mf; parameters: species or system Dirofilaria immitis; conditions: in vivo
[1] = test system: adult heartworms (D. immitis antigen); parameters: species or system Dirofilaria immitis; conditions: in vivo; dihydrochloride
adult heartworms = conditions: dog, in vivo

Row | Molecule | dose previously shown to kill mf (mf) [µg/kg] | Microfilariae in blood (Knott's test) (D. immitis mf) | Antigen test DiroChek result (+ve or −ve) [1] | Antigen test PetChek result (+ve or −ve) [1] | Antigen test SNAP result (+ve or −ve) [1] | clinical signs after adulticide (adult heartworms) | Microfilariae concentration in blood (D. immitis mf; po) | Microfilariae in blood (Knott's test) (D. immitis mf; po)
1 | milbemycin oxime [MO] | 500 | remained continually microfilaremic; also recorded: mf were still present; also recorded: Knott's test +ve^a; also recorded: Knott's test +ve^c |  |  |  |  |  | 
2 | Cl.Cl.NCCS[As](SCCN)c1ccc(Nc2nc(N)nc(N)n2)cc1 [melarsomine, melarsomine dihydrochloride] |  |  | still negative; also recorded: DiroChek −ve^c | negative; also recorded: PetChek −ve^a | still negative; also recorded: SNAP −ve^a | transitory signs consistent with death of adult heartworms |  | 
3 | CC[C@H](C)[C@H]1O[C@]2(CC[C@@H]1C)C[C@@H]1C[C@@H](C/C=C(\C)[C@@H](O[C@H]3C[C@H](OC)[C@@H](O[C@H]4C[C@H](OC)[C@@H](O)[C@H](C)O4)[C@H](C)O3)[C@@H](C)/C=C/C=C3\CO[C@@H]4[C@H](O)C(C)=C[C@@H](C(=O)O1)[C@]34O)O2 [IVM, ivermectin] | 50 |  |  |  |  |  | ≧100^b mf/ml | remained continually microfilaremic; also recorded: still microfilaremic; also recorded: Knott's test +ve^a
